In US5405849A, “Angiotensin II receptor blocking 2,3,6 substituted quinazolinones” (American Cyanamid Company, priority 1993, dated 1995):

How the values were obtained:
[1] = system: angiotensin II (AII) vasopressor response; assay: AII challenge: antagonism of the vasopressor response of angiotensin II in conscious Okamoto-Aoki SHR; type: in vivo, rat (Okamoto-Aoki SHR); details: 30 mg/kg iv; for inhibition in vivo at 30 mg/kg: Rattus norvegicus, iv
Excerpt: Conscious Male Okamoto-Aoki SHR, 16-20 weeks old, weighing approximately 330 g are purchased from Charles River Labs (Wilmington, Mass.). Conscious rats are restrained in a supine position with elastic tape. The area at the base of the tail is locally anesthetized by subcutaneous infiltration with 2% procaine. The ventral caudal artery and vein are isolated, and a cannula made of polyethylene (PE) 10-20 tubing (fused together by heat) is passed into the lower abdominal aorta and vena cava, respectively. The cannula is secured, heparinized (1,000 I.U./ml), sealed and the wound is closed. The animals are placed in plastic restraining cages in an upright position. The cannula is attached to a Statham P23Db pressure transducer, and pulsatile blood pressure is recorded to 10-15 minutes with a Gould Brush recorder.
Angiotensin II (human sequence, Sigma Chem. Co., St. Louis, Mo.) of 0.05 and 0.1 ug/kg i.v. is injected into all rats (predosing response). Then a test compound, vehicle or a known angiotensin II antagonist is administered i.v., i.p. or orally to each set of rats. […] The vasopressor response of angiotensin II is measured for the increase in systolic blood pressure in mmHg. The percentage of antagonism or blockade of the vasopressor response of angiotensin II by a compound is calculated using the vasopressor response (increase in systolic blood pressure) of angiotensin II of each rat predosing the compound as 100%.

angiotensin II receptors = assay: Angiotensin II receptor binding (displacement of 3H-angiotensin II), rat adrenocortical microsomes; details: 2 nM 3H-angiotensin II
Protocol: The source of the angiotensin II receptors utilized in the screen is from rat adrenocortical microsomes. The cortices are placed in ice cold sucrose buffer (0.2 m sucrose, 1 mm EDTA, 10 mm Trizma base, pH 7.4) and homogenized in a chilled ground glass tissue grinder. The homogenate is centrifuged at 3000×g for 10 min. and the resultant supernatant is decanted through cheesecloth and centrifuged at 12,000×g for 3 min. […] Binding assays are performed by incubating aliquots of freshly prepared microsomes in the absence or presence of compound (40 uM final concentration). Ten minutes later, ^3 H-angiotensin II is added to each tube (2 nM final concentration) and incubated for 60 minutes at […]. The reaction is terminated by the addition of 3 ml of cold assay buffer without albumin and the bound and free radioactivity is separated rapidly through glass-fiber filters prewetted with assay buffer. After two additional 3 ml rinses, the filters are placed in scintillation fluid and counted in a scintillation counter to determine trapped radioactivity.

IC50 (angiotensin II receptors): 5 nM
SMILES: CCCCc1nc2ccc(C(CC)OC)cc2c(=O)n1Cc1ccc(-c2ccccc2-c2nnn[nH]2)cc1 (stereo not shown) [Example 55, 2-Butyl-6-(1-methoxypropyl)-3-[[2'-(1H-tetrazol-5-yl) [1,1'-biphenyl]-4-yl]methyl]-4(3H) -quinazolinone]
Response change (systolic BP increase to AII) ([1]; AII .05 ug/kg, 30 min): 10 mmHg
Response change (systolic BP increase to AII) ([1]; AII .05 ug/kg, 90 min): 15 mmHg
Response change (systolic BP increase to AII) ([1]; AII .05 ug/kg, 150 min): 20 mmHg
Response change (systolic BP increase to AII) ([1]; AII .1 ug/kg, 30 min): 15 mmHg
Response change (systolic BP increase to AII) ([1]; AII .1 ug/kg, 90 min): 5 mmHg
Response change (systolic BP increase to AII) ([1]; AII .1 ug/kg, 150 min): 5 mmHg
inhibition in vivo at 30 mg/kg ([1]; 0.5 h, AII .05 ug/kg, 30 min): 82%
inhibition in vivo at 30 mg/kg ([1]; 0.5 h, AII .1 ug/kg, 30 min): 73%
inhibition in vivo at 30 mg/kg ([1]; 1.5 h, AII .05 ug/kg, 90 min): 73%
inhibition in vivo at 30 mg/kg ([1]; 1.5 h, AII .1 ug/kg, 90 min): 91%
inhibition in vivo at 30 mg/kg ([1]; 2.5 h, AII .05 ug/kg, 150 min): 64%
inhibition in vivo at 30 mg/kg ([1]; 2.5 h, AII .1 ug/kg, 150 min): 91%
